# Data reported in patent US20240058315A1, “Pyridine and Pyrazine derivative for the Treatment of CF, COPD, and Bronchiectasis” (NOVARTIS AG, priority 2019, published 2024).
# Biological target: ΔF508-CFTR (Homo sapiens (Human), UniProt P13569, DEL508-508)
# Test: CFTR potentiator assays (membrane potential, IonWorks Quattro, Ussing chamber ion transport)
# Format: cell-based
# Conditions: CFTR EC50 in 'the data measurements described above'; which of the potentiator assays is not stated
# Description: CFTR activity can be quantified by measuring the transmembrane potential. The means for measuring the transmembrane potential in a biological system can employ a number of methods including electrophysiological and optical fluorescence-based membrane potential assays.
# The optical membrane potential assay utilises a negatively charged potentiometric dye, such as the FLIPR membrane potential dye (FMP) (see Baxter D F, Kirk M, Garcia A F, Raimondi A, Holmqvist M H, Flint K K, Bojanic D, Distefano P S, Curtis R, Xie Y. ‘A novel membrane potential-sensitive fluorescent dye improves cell-based assays for ion channels.’ J Biomol Screen. 2002 February; 7(1):79-85) which when extracellular is bound to a quenching agent.
# Upon cellular depolarisation the negatively charged dye redistributes to the intracellular compartment, unbinding from the membrane impermeant quench agent, yielding an increase in fluorescence. This change in fluorescence is proportional to the change in transmembrane potential which can result from the activity of CFTR. The changes in fluorescence can be monitored in real time by an appropriately equipped fluorescence detector such as the FLIPR (fluorometric imaging plate reader) in 96 or 384-well microtitre plates.
# Chinese hamster ovary (CHO) cells stably expressing the AF508-CFTR channel were used for membrane potential experiments. Cells were maintained at 37° C. in 5% v/v CO2 at 100% humidity in Modified Eagles medium (MEM) supplemented with 8% v/v foetal calf serum, 100 μg/ml methotrexate and 100 U/ml penicillin/streptomycin. Cells were grown in 225 cm^2 tissue culture flasks. For membrane potential assays cells were seeded into 96 well plates at 40,000 cells per well, allowed to adhere and then maintained at 26° C. for 48 h to facilitate channel insertion.
# The membrane potential screening assay utilised a low chloride ion containing extracellular solution (˜5 mM) combined with a double addition protocol. The first addition was of buffer with or without test compound followed 5 minutes later by an addition of forskolin (1-20 μM)—this protocol favours maximum chloride efflux in response to ΔF508-CFTR activation. The ΔF508-CFTR mediated chloride ion efflux leads to a membrane depolarisation which is optically monitored by the FMP dye.
# Low chloride extracellular (mM): 120 Na-gluconate, 1.2 CaCl2), 3.3 KH2PO4, 0.8 K2HPO4, 1.2 MgCl2, 10.0 D-glucose, 20.0 HEPES, pH 7.4 with NaOH FMP dye: made up as per manufacturers' instructions in low chloride extracellular solution detailed above, at 10× final concentration, and stored as 1 mL aliquots at −20° C.
# CFTR activity can also be quantified electrophysiologically using the whole-cell configuration of the patch clamp technique (Hamill et al Pflugers Archive 1981). This assay directly measures the currents associated with chloride flow through CFTR channels whilst either maintaining or adjusting the transmembrane voltage. This assay can use either single glass micropipettes or parallel planar arrays to measure CFTR activity from native or recombinant cell systems. Currents measured using parallel planar arrays can be quantified using an appropriately equipped instrument such as the IonWorks Quattro (Molecular Devices) or the Qpatch (Sophion). The Quattro system can measure CFTR currents from either a single cell per recording well (HT configuration) or alternatively from a population of 64 cells per well (Population Patch Clamp PPC) (Finkel A, Wittel A, Yang N, Handran S, Hughes J, Costantin J. ‘Population patch clamp improves data consistency and success rates in the measurement of ionic currents.’ J Biomol Screen. 2006 August; 11(5):488-96).
# Chinese hamster ovary (CHO) cells stably expressing the ΔF508-CFTR channel were used for IonWorks Quattro experiments. […]
# Chain of ΔF508-CFTR (P13569 other isoform, or with tags, fused parts or gaps del F508-F508): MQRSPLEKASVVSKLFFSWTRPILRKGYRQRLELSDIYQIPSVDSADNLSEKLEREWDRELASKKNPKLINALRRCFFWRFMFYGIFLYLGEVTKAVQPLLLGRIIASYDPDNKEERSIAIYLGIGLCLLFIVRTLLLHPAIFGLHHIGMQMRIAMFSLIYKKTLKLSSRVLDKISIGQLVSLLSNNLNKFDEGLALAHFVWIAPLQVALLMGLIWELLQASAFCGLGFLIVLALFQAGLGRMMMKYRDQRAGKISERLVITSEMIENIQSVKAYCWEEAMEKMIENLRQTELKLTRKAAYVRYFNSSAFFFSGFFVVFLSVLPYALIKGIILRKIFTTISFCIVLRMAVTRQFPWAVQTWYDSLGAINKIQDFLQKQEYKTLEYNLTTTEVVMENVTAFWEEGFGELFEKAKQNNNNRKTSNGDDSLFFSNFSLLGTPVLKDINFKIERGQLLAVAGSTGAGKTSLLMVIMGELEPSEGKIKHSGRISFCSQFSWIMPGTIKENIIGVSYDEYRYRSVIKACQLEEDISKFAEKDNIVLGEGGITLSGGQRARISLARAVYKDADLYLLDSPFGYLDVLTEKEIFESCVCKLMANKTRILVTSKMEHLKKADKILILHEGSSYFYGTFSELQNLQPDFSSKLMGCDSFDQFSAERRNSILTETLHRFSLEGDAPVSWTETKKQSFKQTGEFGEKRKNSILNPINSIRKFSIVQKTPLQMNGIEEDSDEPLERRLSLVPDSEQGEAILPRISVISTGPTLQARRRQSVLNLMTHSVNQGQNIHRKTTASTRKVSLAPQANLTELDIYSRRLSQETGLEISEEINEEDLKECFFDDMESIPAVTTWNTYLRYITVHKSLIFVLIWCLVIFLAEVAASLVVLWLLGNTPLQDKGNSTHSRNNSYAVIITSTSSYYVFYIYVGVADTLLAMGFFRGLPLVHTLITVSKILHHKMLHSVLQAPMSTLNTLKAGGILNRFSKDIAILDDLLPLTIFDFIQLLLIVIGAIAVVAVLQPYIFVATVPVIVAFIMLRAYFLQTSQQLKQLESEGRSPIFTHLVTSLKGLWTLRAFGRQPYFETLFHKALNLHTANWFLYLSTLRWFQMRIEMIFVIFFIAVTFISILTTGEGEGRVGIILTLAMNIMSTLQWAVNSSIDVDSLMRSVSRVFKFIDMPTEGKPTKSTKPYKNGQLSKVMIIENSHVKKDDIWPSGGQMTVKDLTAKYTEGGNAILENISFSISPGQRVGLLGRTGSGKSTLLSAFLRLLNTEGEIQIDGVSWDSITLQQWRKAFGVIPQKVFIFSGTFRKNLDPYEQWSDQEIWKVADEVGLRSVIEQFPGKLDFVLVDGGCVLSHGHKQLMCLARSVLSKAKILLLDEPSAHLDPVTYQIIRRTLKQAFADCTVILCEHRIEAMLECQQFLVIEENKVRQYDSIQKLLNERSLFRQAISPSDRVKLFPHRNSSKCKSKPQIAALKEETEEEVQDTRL
row,EC50 [nM],SMILES
1,76,"COc1nc(C(=O)NCC(C)(O)C(F)(F)F)c(N)cc1C(F)(F)F (racemic) [Example 4, 3-Amino-6-methoxy-5-trifluoromethyl-pyridine-2-carboxylic acid (3,3,3-trifluoro-2-hydroxy-2-methyl-propyl)-amide]"
2,35,"COc1nc(C(=O)NCC(O)C(F)(F)F)c(N)cc1C(F)(F)F (centres unmarked) [Example 12, 3-Amino-6-methoxy-5-trifluoromethyl-pyridine-2-carboxylic acid (3,3,3-trifluoro-2-hydroxy-propyl)-amide]"
3,55,"C[C@](O)(CNC(=O)c1nc(Br)c(C(F)(F)F)cc1N)C(F)(F)F [Example 3, 3-Amino-6-bromo-5-trifluoromethyl-pyridine-2-carboxylic acid ((S)-3,3,3-trifluoro-2-hydroxy-2-methyl-propyl)-amide]"
4,15,"C[C@@](O)(CNC(=O)c1nc(Br)c(C(F)(F)F)cc1N)C(F)(F)F [Example 2, 3-Amino-6-bromo-5-trifluoromethyl-pyridine-2-carboxylic acid ((R)-3,3,3-trifluoro-2-hydroxy-2-methyl-propyl)-amide]"
5,426,"COc1nc(C(=O)NC[C@@](C)(O)C(F)(F)F)c(N)cc1C(F)(F)F (single isomer, unassigned) [Example 6]"

# Further lines, the compound ahead of its results:
row,SMILES,EC50 [nM]
1,"CC(O)(CNC(=O)c1nc(-c2ccc(Cl)cc2Cl)c(C(F)(F)F)cc1N)C(F)(F)F (single isomer, unassigned) [Example 10, 3-Amino-6-(2,4-dichloro-phenyl)-5-trifluoromethyl-pyridine-2-carboxylic acid (3,3,3-trifluoro-2-hydroxy-2-methyl-propyl)-amide]",112
2,"C[C@](O)(CNC(=O)c1nc(C(F)(F)F)c(C(F)(F)F)cc1N)C(F)(F)F [Example 16, 3-Amino-5,6-bis-trifluoromethyl-pyridine-2-carboxylic acid ((S)-3,3,3-trifluoro-2-hydroxy-2-methyl-propyl)-amide]",8
3,"C[C@](O)(CNC(=O)c1nc(-c2ccc(F)cc2)c(C(F)(F)F)cc1N)C(F)(F)F [Example 7, 3-Amino-6-(4-fluoro-phenyl)-5-trifluoromethyl-pyridine-2-carboxylic acid ((S)-3,3,3-trifluoro-2-hydroxy-2-methyl-propyl)-amide]",40
4,"Cc1ccc(-c2nc(C(=O)NCC(C)(O)C(F)(F)F)c(N)cc2C(F)(F)F)cn1 (single isomer, unassigned) [Example 15, 5-Amino-6′-methyl-3-trifluoromethyl-[2,3′]bipyridinyl-6-carboxylic acid (3,3,3-trifluoro-2-hydroxy-2-methyl-propyl)-amide]",51
5,"Cc1ccc(-c2nc(C(=O)NCC(O)(C(F)(F)F)C(F)(F)F)c(N)cc2C(F)(F)F)cn1 [Example 14, 5-Amino-6′-methyl-3-trifluoromethyl-[2,3′]bipyridinyl-6-carboxylic acid (3,3,3-trifluoro-2-hydroxy-2-trifluoromethyl-propyl)-amide]",115
6,"C[C@@](O)(CNC(=O)c1nc(C(F)(F)F)c(C(F)(F)F)cc1N)C(F)(F)F [Example 17, 3-Amino-5,6-bis-trifluoromethyl-pyridine-2-carboxylic acid ((R)-3,3,3-trifluoro-2-hydroxy-2-methyl-propyl)-amide]",10
7,"CC(O)(CNC(=O)c1nc(-c2ccc(Cl)cc2Cl)c(C(F)(F)F)cc1N)C(F)(F)F (single isomer, unassigned) [Example 9, 3-Amino-6-(2,4-dichloro-phenyl)-5-trifluoromethyl-pyridine-2-carboxylic acid (3,3,3-trifluoro-2-hydroxy-2-methyl-propyl)-amide]",90
8,"CC(C)(O)CNC(=O)c1nc(-c2ccc(F)cc2)c(C(F)(F)F)cc1N [Example 11, 3-Amino-6-(4-fluoro-phenyl)-5-trifluoromethyl-pyridine-2-carboxylic acid (2-hydroxy-2-methyl-propyl)-amide]",37
9,"C[C@@](O)(CNC(=O)c1nc(-c2ccc(F)cc2)c(C(F)(F)F)cc1N)C(F)(F)F [Example 8, 3-Amino-6-(4-fluoro-phenyl)-5-trifluoromethyl-pyridine-2-carboxylic acid ((R)-3,3,3-trifluoro-2-hydroxy-2-methyl-propyl)-amide]",60
